Calls of active or inactive are those of the source. The rule behind the calls is not given here.
Legend:
[1] = system: HCT-116; assay: Growth inhibition of human HCT116 cells after 48 hrs by MTT assay; assay type: functional, cell-based; conditions: HCT-116, 48 h
[2] = system: K562; assay: Growth inhibition of human K562 cells after 48 hrs by MTT assay; assay type: functional, cell-based; conditions: K562, 48 h
[3] = system: CT26; assay: Antitumor activity against mouse CT26 cells implanted in Balb/c mouse assessed as solid tumor growth inhibition at 1 mg/kg, iv for 14 consecutive days measured on day 15 relative to control; assay type: functional; conditions: 360 h, read-out: TGI
[4] = system: Mus musculus; assay: Toxicity in Balb/c mouse implanted with mouse CT26 cells assessed as changes in body weight at 1 mg/kg, iv for 14 consecutive days starting from day 8 post tumor implantation; assay type: organism-based; conditions: in vivo
[5] = system: Mus musculus; assay: Toxicity in Balb/c mouse implanted with mouse CT26 cells assessed as increase in heart weight at 1 mg/kg, iv for 7 consecutive days starting from day 8 post tumor implantation; assay type: organism-based; conditions: in vivo
[6] = system: Mus musculus; assay: Toxicity in Balb/c mouse implanted with mouse CT26 cells assessed as increase in heart weight at 1 mg/kg, iv for 14 consecutive days starting from day 8 post tumor implantation; assay type: organism-based; conditions: in vivo
[7] = system: HCT-116; assay: Upregulation of SSAT protein expression in human HCT116 cells at 2.5 to 10 uM after 24 hrs by Western blot method; assay type: functional, cell-based
[8] = system: HCT-116; assay: Decrease in spermidine level in human HCT116 cells at 2.5 to 10 uM after 24 hrs by G1321A fluorescence detector coupled HPLC analysis; assay type: functional, cell-based
[9] = system: HCT-116; assay: Decrease in putrescine level in human HCT116 cells at 2.5 to 10 uM after 24 hrs by G1321A fluorescence detector coupled HPLC analysis; assay type: functional, cell-based
[10] = Drug uptake in human HCT116 cell lysosomes at 10 uM after 2 hrs by Lyso-tracker staining based confocal microscopic method; assay type: ADME, subcellular, Lysosome; conditions: hct-116, 2 h
[11] = Drug uptake in lysosomes isolated from human HCT116 cells at 10 uM after 8 hrs by Lyso-tracker staining based confocal microscopic method; assay type: ADME, subcellular, Lysosome; conditions: hct-116, 8 h
[12] = system: HCT-116; assay: Induction of apoptosis in human HCT116 cells assessed as live cells at 10 uM after 24 hrs by annexin V-FITC/propidium iodide staining based flow cytometry (reference value: 89.97%); assay type: functional
[13] = system: HCT-116; assay: Induction of apoptosis in human HCT116 cells assessed as early apoptotic cells at 10 uM after 24 hrs in presence of autophagy inhibitor 3-MA by annexin V-FITC/propidium iodide staining based flow cytometry (reference value: 4.1%); assay type: functional
[14] = system: HCT-116; assay: Induction of apoptosis in human HCT116 cells assessed as late apoptotic cells at 10 uM after 24 hrs in presence of autophagy inhibitor 3-MA by annexin V-FITC/propidium iodide staining based flow cytometry (reference value: 2.03%); assay type: functional
[15] = system: HCT-116; assay: Induction of apoptosis in human HCT116 cells assessed as necrotic cells at 10 uM after 24 hrs in presence of autophagy inhibitor 3-MA by annexin V-FITC/propidium iodide staining based flow cytometry (reference value: 3.9%); assay type: functional
[16] = system: HCT-116; assay: Induction of apoptosis in human HCT116 cells assessed as live cells at 10 uM after 24 hrs in presence of pan-caspase inhibitor Z-VAD-FMK by annexin V-FITC/propidium iodide staining based flow cytometry (reference value: 89.97%); assay type: functional
[17] = system: HCT-116; assay: Induction of apoptosis in human HCT116 cells assessed as early apoptotic cells at 10 uM after 24 hrs in presence of pan-caspase inhibitor Z-VAD-FMK by annexin V-FITC/propidium iodide staining based flow cytometry (reference value: 4.1%); assay type: functional
[18] = system: HCT-116; assay: Induction of apoptosis in human HCT116 cells assessed as late apoptotic cells at 10 uM after 24 hrs in presence of pan-caspase inhibitor Z-VAD-FMK by annexin V-FITC/propidium iodide staining based flow cytometry (reference value: 2.03%); assay type: functional
[19] = system: CT26; assay: Induction of apoptosis in mouse CT26 cells assessed as necrotic cells at 10 uM after 24 hrs by annexin V-FITC/propidium iodide staining based flow cytometry (reference value: 4.36%); assay type: functional
[20] = system: CT26; assay: Induction of apoptosis in mouse CT26 cells assessed as live cells at 10 uM after 24 hrs in presence of autophagy inhibitor 3-MA by annexin V-FITC/propidium iodide staining based flow cytometry (reference value: 89.47%); assay type: functional
[21] = system: CT26; assay: Induction of apoptosis in mouse CT26 cells assessed as early apoptotic cells at 10 uM after 24 hrs in presence of autophagy inhibitor 3-MA by annexin V-FITC/propidium iodide staining based flow cytometry (reference value: 3.91%); assay type: functional
[22] = system: CT26; assay: Induction of apoptosis in mouse CT26 cells assessed as necrotic cells at 10 uM after 24 hrs in presence of autophagy inhibitor 3-MA by annexin V-FITC/propidium iodide staining based flow cytometry (reference value: 4.36%); assay type: functional
[23] = system: CT26; assay: Induction of apoptosis in mouse CT26 cells assessed as late apoptotic cells after 24 hrs by annexin V-FITC/propidium iodide staining based flow cytometry; assay type: functional, cell-based
[24] = system: HCT-116; assay: Induction of apoptosis in human HCT116 cells assessed as early apoptotic cells after 24 hrs by annexin V-FITC/propidium iodide staining based flow cytometry; assay type: functional, cell-based
[25] = system: HCT-116; assay: Induction of autophagy in human HCT116 cells at 1 to 20 uM after 24 hrs by Lyso staining based flow cytometry; assay type: functional, cell-based
[26] = system: CT26; assay: Induction of autophagy in mouse CT26 cells at 10 to 20 uM after 24 hrs in presence of autophagy inhibitor 3-MA by Lyso staining based flow cytometry; assay type: functional, cell-based
[27] = system: HCT-116; assay: Induction of autophagy in human HCT116 cells at 5 to 20 uM after 24 hrs in presence of pan-caspase inhibitor Z-VAD-FMK by Lyso staining based flow cytometry; assay type: functional, cell-based
[28] = system: HCT-116; assay: Induction of autophagy in human HCT116 cells assessed as accumulation of LC3-2 after 24 hrs by Western blot method; assay type: functional, cell-based
[29] = system: HCT-116; assay: Upregulation of LAMP1 protein expression in human HCT116 cells at 10 uM after 24 hrs by Western blot method; assay type: functional, cell-based
[30] = system: HCT-116; assay: Upregulation of LAMP2 protein expression in human HCT116 cells at 10 uM after 24 hrs by Western blot method; assay type: functional, cell-based
[31] = system: HCT-116; assay: Downregulation of p62 protein expression in human HCT116 cells after 24 hrs by Western blot method; assay type: functional, cell-based
[32] = system: HCT-116; assay: Upregulation of cleaved caspase-8 protein expression in human HCT116 cells up to 10 uM after 24 hrs by Western blot method; assay type: functional, cell-based
[33] = system: HCT-116; assay: Downregulation of Akt protein expression in human HCT116 cells up to 10 uM after 24 hrs by Western blot method; assay type: functional, cell-based
[34] = system: HCT-116; assay: Downregulation of Bcl2 protein expression in human HCT116 cells up to 10 uM after 24 hrs by Western blot method; assay type: functional, cell-based
[35] = system: HCT-116; assay: Upregulation of cleaved caspase-8 protein expression in human HCT116 cells up to 10 uM after 24 hrs in presence of autophagy inhibitor 3-MA by Western blot method; assay type: functional, cell-based
[36] = system: HCT-116; assay: Downregulation of Akt protein expression in human HCT116 cells up to 10 uM after 24 hrs in presence of autophagy inhibitor 3-MA by Western blot method; assay type: functional, cell-based
[37] = system: HCT-116; assay: Upregulation of p53 protein expression in human HCT116 cells up to 10 uM after 24 hrs in presence of autophagy inhibitor 3-MA by Western blot method; assay type: functional, cell-based

What does the source list for `Cl.Cl.Cl.NCCCCNCCCCNCCCCN1C(=O)c2cccc3cccc1c23`?
IC50 [1]: 5.72 µM; IC50 [2]: 12 µM; inhibition in vivo at 1 mg/kg [3]: 46.9%; Activity [4]: Non-Toxic; Activity [5]: Toxic; Activity [6]: Toxic; Activity [7]: Dose-dependent effect; Activity [8]: Active; Activity [9]: inactive; Drug uptake [10]: Active; Drug uptake [11]: Active; Activity [12]: 38.14%; Activity [13]: 17.3%; Activity [14]: 18.92%; Activity [15]: 7.21%; Activity [16]: 66.87%; Activity [17]: 11.4%; Activity [18]: 13.6%; Activity [19]: 3.56%; Activity [20]: 61.63%; Activity [21]: 27.36%; Activity [22]: 4.42%; Activity [23]: Dose-dependent effect; Activity [24]: Dose-dependent effect; Activity [25]: Active; Activity [26]: inactive; Activity [27]: inactive; Activity [28]: Dose-dependent effect; Activity [29]: Active; Activity [30]: Active; Activity [31]: Dose-dependent effect; Activity [32]: Active; Activity [33]: Active; Activity [34]: Active; Activity [35]: inactive; Activity [36]: inactive; Activity [37]: inactive
